As usually defined, the Km is the concentration of substrate that gives half-maximal velocity. As a reminder, the remaining activity is what remains of the control signal, in per cent.

Where two headings read alike, the source gives them in different places.

The test system of series [1] is L. reuteri oxidoreductase. The series can be described thus: Solvent stability: enzyme activity after contact with organic solvents. In kind it is biochemical, Lactobacillus reuteri. The settings on record: for Activity 8 h / Activity 24 h: room temperature; for stability with respect to organic solvents: in words. As for the experimental part:
The enzyme stability when making contact with organic solvents was studied by diluting the L. reuteri oxidoreductase 1:400 (in the case of water-miscible organic solvents) with the solvent mixtures indicated and incubating at room temperature. Subsequently, 10 μl of the enzyme solution were used in the standard assay mixture. Here too, the starting value was set to 100% after dilution in the buffer (potassium phosphate buffer 100 mM, pH=7.0, 1 mM MgCl2) and all other values were related thereto.
In the case of the water-immiscible organic solvents, dilution was likewise carried out in potassium phosphate buffer, the same volume of organic solvent was added to the mixture and the mixture incubated at room temperature in a thermal mixer at rpm=170. The activity was measured from the aqueous phase.

In series [2] the test system is recombinant Lactobacillus reuteri oxidoreductase. The series can be described thus: Substrate spectrum in standard measurement mixture. The settings on record: for NADP-dependent dehydrogenase activity: oxidation of the hydroxy ester. In kind it is biochemical.
Substrate in series [3]: CCCC(=O)C(=O)OCC
The series can be described thus: Determination of Km and vmax. In kind it is biochemical, Lactobacillus reuteri. The settings on record: other: potassium phosphate buffer pH=7.0, enzyme solution 1:300.
Procedure: The enzyme solution used was the 1:300 diluted lysate (600 μl) obtained from 0.1 g of recombinant E. coli cells.

Series [4] can be described thus: pH optimum of recombinant L. reuteri oxidoreductase. It is filed as biochemical. As for the experimental part: Preparation of the following measurement buffers, all of which are 50 mM, contain 1 mM MgCl2 and have different pH values.
Enzyme diluted as required (1:20)
A pH optimum of between 6.5 and 7 was determined for the enzyme of the invention.

The nature of series [5]: pH stability of recombinant L. reuteri oxidoreductase. It is filed as physicochemical. The method, then: The dependence of the activity of the enzyme on storage in buffers of different pH was studied for the pH range from 4 to 11. For this purpose, various buffers (50 mM) in the pH range from 4 to 11 were prepared and the enzyme overexpressed in example 4 was diluted therein 1:200 and incubated for 30, 60 and 300 min. All buffers contained 1 mM MgCl2. 10 μl thereof were then used in the normal activity assay. The starting value here is the measurement value obtained immediately after diluting the enzyme in potassium phosphate buffer 50 mM pH=7.0. Said value corresponded under predefined conditions to a change in extinction of 0.70/min and was set to 100% and all subsequent measurement values were related to this value.

The nature of series [6]: Temperature optimum of recombinant L. reuteri oxidoreductase. It is filed as biochemical.
A short description of series [7]: Temperature stability of recombinant L. reuteri oxidoreductase. In kind it is physicochemical. The settings on record: after only 30 min. As for the experimental part:
The temperature stability for the range from 15° C. to 70° C. was determined in a manner similar to that described under 5.2. […] Here too, the starting value used was the measurement value which is obtained immediately after diluting the enzyme in potassium phosphate buffer 50 mM pH=7.0 and which was set to 100% here, too.

Setting [8] is: water-immiscible solvent, same volume as buffer, activity from the aqueous phase.
[9] abbreviates: water-miscible solvent mixture or buffer, enzyme 1:400, starting value 100%.
Where [10] appears, read: reduction with NADPH, activity with ethyl 2-oxo-4-phenylbutyrate set to 100%.
Setting [11] is: Oxidation, activity with ethyl 2-oxo-4-phenylbutyrate set to 100%.

Take `C1CCCCC1` [Cyclohexane]: in series [1] (setting [8]), the “Activity 8 h” value was 113% and the “Activity 24 h” value was 100%.
For `C[S+](C)[O-]` [10% DSMO], in series [1] (setting [9]), the “Activity 8 h” value worked out at 80% and the “Activity 24 h” value amounted to 80%.
In the case of `CCCC(=O)C(=O)O` [2-Oxovaleric acid], the Relative activity % in series [2] (setting [10]) was determined as 0%.
Take `CCOCC` [Diethyl ether]: in series [1] (setting [8]), the “Activity 8 h” value stood at 32% and the “Activity 24 h” value turned out to be 20%.
On to `CC(C)=O` [Acetone], for which the Relative activity % in series [2] (setting [10]) was 0%.
For `COC(=O)CC(C)=O` [Methyl acetoacetate], the Relative activity % in series [2] (setting [10]) was determined as 0.3%.
With `CC(C)O` [10% Isopropanol, Isopropanol], in series [1] (setting [9]), the “Activity 8 h” value was determined as 86% and the “Activity 24 h” value amounted to 85%.
For `CC(C)O` [20% Isopropanol, Isopropanol] the same measures were 100% and 100%.
Consider `CCOC(=O)CC(=O)CCl` [Ethyl 4-chloro-acetoacetate], for which the Relative activity % in series [2] (setting [10]) was 16%.
For `CC(C)O` [5% Isopropanol, Isopropanol], in series [1] (setting [9]), the “Activity 8 h” value stood at 77% and the “Activity 24 h” value turned out to be 77%.
As to `CCO` [30% EtOH, EtOH], in series [1] (setting [9]), the “Activity 8 h” value is listed as 77% and the “Activity 24 h” value was found to be 75%.
Take `CCCC(=O)C(=O)OCC` [Ethyl 2-oxovalerate]: the Relative activity % in series [2] (setting [10]) was determined as 190%.
Take `C[S+](C)[O-]` [20% DSMO]: in series [1] (setting [9]), the “Activity 8 h” value stood at 79% and the “Activity 24 h” value turned out to be 80%.
Consider `ClC(Cl)Cl` [Chloroform], for which, in series [1] (setting [8]), the “Activity 8 h” value is 6% and the “Activity 24 h” value was determined as 0%.
The corresponding values for `CCCCCCC` [Heptane] are 113% and 100%.
Take `O=C(CCl)c1cccc(Cl)c1` [2-Chloro-l-(3-chloro-phenyl)-ethan-1-one]: the Relative activity % in series [2] is given as 0%.
With `CCOC(=O)C(=O)c1ccccc1` [Ethyl phenylglyoxylate], the Relative activity % in series [2] (setting [10]) stood at 2%.
Turning to `CC(C)OC(C)C` [Diisopropyl ether], in series [1] (setting [8]), the “Activity 8 h” value was 94% and the “Activity 24 h” value is recorded as 77%.
For `CCOC(=O)C(C)=O` [Ethyl pyruvate], the Relative activity % in series [2] (setting [10]) amounted to 2%.
Same read-out and setting: the figure for `CCCCCCCC(=O)c1ccccc1` [Caprylophenone] is 0%; for `CC(=O)Cc1ccccc1` [1-Phenyl-2-propanone] it is 3%; for `CCC(=O)C(=O)O` [2-oxobutyric acid] it is 0%.
Turning to `CCO` [20% EtOH, EtOH], in series [1] (setting [9]), the “Activity 8 h” value is listed as 83% and the “Activity 24 h” value came out at 80%.
Consider `COC(=O)CCCCC(=O)CC(=O)OC` [Dimethyl-3-oxo-1,8-octanedioic acid], for which the Relative activity % in series [2] (setting [10]) came out at 42%.
Turning to `CCO` [5% EtOH, EtOH], in series [1] (setting [9]), the “Activity 8 h” value came to 64% and the “Activity 24 h” value is reported as 65%.
Turning to `O=C(O)C(=O)Cc1ccccc1` [2-Oxo-3-phenyl-propionic acid], the Relative activity % in series [2] (setting [10]) was found to be 0.5%.
Same read-out and setting: to `CCOC(=O)CC(=O)CC` [Ethyl 3-oxo-valerate] belongs 1.3%.
As to `CC(C)O` [2-Propanol], the Relative activity % in series [2] (setting [11]) stood at 0%.
As for `CC(=O)c1ccccc1` [Acetophenone], in series [2] (setting [10]), the Relative activity % is 0%.
As for `CCOC(=O)CCCCC(=O)CCCl` [Ethyl 8-chloro-6-oxooctanoic acid], the Relative activity % in series [2] (setting [10]) was determined as 190%.
Consider `CCOC(C)=O` [Ethyl acetate], for which, in series [1] (setting [8]), the “Activity 8 h” value was found to be 0% and the “Activity 24 h” value is given as 0%.
As for `CCCCCC` [Hexane], in series [1] (setting [8]), the “Activity 8 h” value stood at 115% and the “Activity 24 h” value is reported as 100%.
As to `COC(C)(C)C` [MTBE], in series [1] (setting [8]), the “Activity 8 h” value amounted to 90% and the “Activity 24 h” value is reported as 81%.
For `CCCCCC(=O)CC` [3-Octanone], in series [2] (setting [10]), the Relative activity % amounted to 4%.
As to `CC(C)O` [30% Isopropanol, Isopropanol], in series [1] (setting [9]), the “Activity 8 h” value is reported as 0% and the “Activity 24 h” value was found to be 0%.
In the case of `CCOC(=O)[C@H](C)O` [Ethyl L-lactate], the Relative activity % in series [2] (setting [11]) came out at 0%. Besides, the NADP-dependent dehydrogenase activity entry in series [2] is on record as “no NADP-dependent dehydrogenase activity”.
For `O=C(O)C[C@H](O)CCl` [S-4-Chloro-3-hydroxy-butyrate] the same measures were 0% and “no NADP-dependent dehydrogenase activity”.
The corresponding values for R-4-Chloro-3-hydroxy-butyrate are 0% and “no NADP-dependent dehydrogenase activity”.
`CCCCOC(C)=O` [Butyl acetate]: in series [1] (setting [8]), the “Activity 8 h” value amounted to 74% and the “Activity 24 h” value was determined as 12%.
For the molecule `CCO` [10% EtOH, EtOH], in series [1] (setting [9]), the “Activity 8 h” value worked out at 68% and the “Activity 24 h” value turned out to be 70%.
Consider `CCOC(=O)[C@@H](C)O` [Ethyl D-lactate], for which the Relative activity % in series [2] (setting [11]) is reported as 0%. Further, in series [2], the NADP-dependent dehydrogenase activity entry is “no NADP-dependent dehydrogenase activity”.
On to `CCOC(=O)[C@H](O)CCc1ccccc1`, for which, in series [2] (setting [11]), the Relative activity % is reported as 0%. The NADP-dependent dehydrogenase activity entry in series [2] is listed as “no NADP-dependent dehydrogenase activity”.
As to `CCCCCCC(C)=O` [2-Octanone], the Relative activity % in series [2] (setting [10]) turned out to be 1%.

B1: recombinant L. reuteri oxidoreductase (Limosilactobacillus reuteri subsp. reuteri) (protein)
chain: MKNIMIAGAGVLGSQIAYQTALSGFNVSVYNHHIDTAERRIKALKSDYERDLHLTDKEFQQGLNNIKVITDDVATAVKDADLMIEALPESLELKEQFYEEVSELAPEKTIFASNSSTFIPSQLAPYTDRPEKFLNMHFANQIWKFNVVEIMGTSQTSPEVIEEATKFAREIKMVPVILNKEQHGYILNSLLIPLLASGLSLWAKGVADPAMIDKDWMISTGAPMGPFGILDMVGLRTAAQIERNAYAQTKDESHKEIADKMEQMIQEGHEGKESGQGFYNYPNPAFMDPDFLKH
On to B1, for which, in series [3], the Km came out at 180 ± 70 µM. The “share of maximum activity” value in series [4] (in the pH range from 4.5 to 8) is on record as 80%. Besides, in series [4] (pH values of below 4.0 and above 8.5), the “activity outside the pH range” value is recorded as “rapidly decreasing”. The “stability with respect to organic solvents” value in series [1] is on record as “remarkably stable”; in series [1] (listed as Lactobacillus reuteri oxidoreductase) it was “high stability”. For the same molecule, the remaining activity amounted to 50% in series [5] (pH 4.0, after 5 h) and 40% in series [5] (pH 9.0, after 5 h). For the same molecule, the “stability at high pH” value in series [5] (pH values above 9.5) was “immediate inactivation”. In addition, the “Activity in U/ml of undiluted enzyme” value is 385 U/ml of undiluted enzyme in series [6] (15 ° C.); 745 U/ml of undiluted enzyme in series [6] (20 ° C.); 1090 U/ml of undiluted enzyme in series [6] (25 ° C.); 1350 U/ml of undiluted enzyme in series [6] (30 ° C.); 1860 U/ml of undiluted enzyme in series [6] (35 ° C.); 2500 U/ml of undiluted enzyme in series [6] (40 ° C.). In addition, the “Activity in U/ml of undiluted enzyme” value is recorded as 2900 U/ml of undiluted enzyme in series [6] (45 ° C.); 3200 U/ml of undiluted enzyme in series [6] (50 ° C.); 3800 U/ml of undiluted enzyme in series [6] (55 ° C.); 617 U/ml of undiluted enzyme in series [6] (60 ° C.); 180 U/ml of undiluted enzyme in series [6] (65 ° C.); 90 U/ml of undiluted enzyme in series [6] (70 ° C.). The “optimal temperature (maximum activity)” value in series [6] (standard measurement mixture, 15° C. to 70° C.) amounted to 55 °C. The “enzyme activity after incubation at 55° C.” value in series [7] is reported as “no longer detectable”.

The values are drawn from patent US20050191735A1, “Oxidoreductase” (priority 2003, published 2005).
